From patent US4822791A, “Pharmaceutical compositions of-2,2-1,1-[bis-2,2'-(3,1-benzoxazin-4-one)9 ethylenes” (priority 1984, dated 1989)
Read-outs that look alike come from different tables or passages of the source. One block for each compound: values may come before it.

Assays:
hyaluronidase = molecular target: T1, hyaluronidase (Bos taurus, UniProt Q2YDK3); assay: Anti-hyaluronidase activity (modified Morgan-Elson method); format: biochemical; conditions: for IC50: hyaluronidase 340NF unit/ml, activating agent Compound 48/80 or CaCl2; for IC20: value marked (IC20), read-out: IC20 (printed in IC50 (mM) column); for IC10: value marked (IC10), read-out: IC10 (printed in IC50 (mM) column)
T1 sequence (Q2YDK3 36-553): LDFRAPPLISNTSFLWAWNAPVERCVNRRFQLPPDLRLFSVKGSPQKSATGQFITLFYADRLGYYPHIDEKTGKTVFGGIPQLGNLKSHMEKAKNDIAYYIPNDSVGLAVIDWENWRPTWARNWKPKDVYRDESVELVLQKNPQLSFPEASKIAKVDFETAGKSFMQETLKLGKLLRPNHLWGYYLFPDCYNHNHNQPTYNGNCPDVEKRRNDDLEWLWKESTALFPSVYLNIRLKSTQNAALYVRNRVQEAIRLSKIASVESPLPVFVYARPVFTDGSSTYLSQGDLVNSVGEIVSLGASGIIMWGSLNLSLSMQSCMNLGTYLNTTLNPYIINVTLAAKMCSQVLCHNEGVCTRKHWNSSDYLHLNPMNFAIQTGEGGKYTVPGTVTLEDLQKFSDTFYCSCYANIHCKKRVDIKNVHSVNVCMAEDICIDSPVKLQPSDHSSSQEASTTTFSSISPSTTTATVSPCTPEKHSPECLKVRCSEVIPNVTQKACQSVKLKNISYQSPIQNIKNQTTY
Protocol: A buffer soluticn of hyaluronidase (0.1 ml) was taken in a test tube and 0.2 ml each of the buffer solution of various compounds in various concentrations was added, and the mixture was preincubated at 37° C. for 20 minutes. Then, an activating agent (Compound 48/80 or CaCl2) (0.2 ml) was added to make the total amount 0.5 ml, which was incubated at 37° C. for 20 minutes. Then, potassium hyaluronate buffer solution (0.5 ml) was added, and the mixture was incubated at 37° C. for 40 minutes. After cooling, the mixture was treated with aqueous solution of 0.4N NaOH (0.2 ml) and neutralized to stop the reaction. The resulting product was subjecred to measurement of OD585 by the modified Morgan-Elson Method. […] (The final ccncentration of hyaluronidase was 340NF unit/ml.) [formula]

[1] = system: passive cutaneous anaphylaxis (PCA); assay: Anti-passive cutaneous anaphylaxis (PCA) activity in rats (Test Example 2); format: in vivo, Wistar strain rats; conditions: Rattus norvegicus, N 10; for inhibition in vivo at 10 mg/kg: 10 mg/kg PO; for inhibition in vivo at 50 mg/kg: 50 mg/kg PO; for inhibition in vivo at 100 mg/kg: 100 mg/kg PO
Protocol: Wistar strain rats were sensitized with ovalbumin using aluminium hydroxide gel and Bordetella Pertussis vaccine as adjuvants. Dilutions of antiserum (16-fold and 32-fold) obtained by collecting blood samples 14 days later were administered subcutaneously in the dorsal skin of the rats of the same strain at the rate of 0.1 ml per spot, and the rats were grown for 48 hours. One hour after peroral administration of the sample solution, a mixture of antigen ovalbumin and Evans-blue dye was administered to the tail venous of the animal according to the ordinary procedure. Thirty minutes later, the animals were sacrificed by exsanguination, and the areas of blue spots (long diameter×short diameter) eliciting on the portion of the antiserum injection at the dorsal skin were measured to obtain the rate of inhibition based on the average value shown by the control animals.

[2] = system: experimental ulcer model (Shay); assay: Anti-ulcer activity in experimental ulcer model (Shay); format: in vivo, Wistar strain male rats
Protocol: Using 5 eight-week old Wistar strain male rats of 1 group, the rats were previously fasted for […]. The compound of an amount proportionate to the body weight based on the body weight after fasting was administered intraduodenally or intraperitoneally.
Each test compound was evenly suspended or dissolved in an aqueous solution of 0.5% CMC ccntaining 0.1% Tween 80, and administered at the rate of 0.5 ml per 100 g of body weight of the animal. To the controls, only the solvent was administered.
Test was carried out in accordance with Shay's method. After 48 hours' fasting, 5 animals per group were subjected to laparotomy under ether anesthesia, the tract between pylorus of stomach and duodenum was ligated, and the solution of the compound was administered intraduodenally (id) or intraperitoneally (ip), followed by suturing the laparotomy part. Eight hours after administration of the compound liquid, each animal was sacrificed by ether anesthesia and stomach was removed. Then, evaluation on the ulcer condition on the inner surface of stomach, and determination of the amount of gastric juice, of acidity by alkali titration, and of pepsin titer based on substrate of hemoglovin were made on the stored gastric juice. With regard to the acidity, gastric juice amount, and pepsin titer, the results were shown in inhibition rate (%) based on the average value of the control groups.

[3] = read-out: Average Inhibition Rate (%) Antiserum Dilution: × 16
[4] = read-out: Average Inhibition Rate (%) Antiserum Dilution: × 32

Compound: O=C(Nc1ccccc1C(=O)O)C(=Cc1ccccc1)C(=O)Nc1ccccc1C(=O)O
- IC50 (hyaluronidase; read-out: IC50): 0.035 mM

Compound: O=C(CC(=O)Nc1ccccc1C(=O)O)Nc1ccccc1C(=O)O [Compound 01, 2,2'-[(1,3-dioxo-1.3-propanediyl)diimino]bisbenzoic acid]
- IC50 (hyaluronidase; read-out: IC50): 0.077 mM

Compound: O=C(CC(=O)Nc1cccc(C(=O)O)c1)Nc1cccc(C(=O)O)c1 [Compound 02]
- IC20 (hyaluronidase): 0.9 mM

Compound: CCOC(=O)c1ccccc1NC(=O)CC(=O)Nc1ccccc1C(=O)OCC [Compound 04]
- IC10 (hyaluronidase): 0.015 mM

Compound: O=C(CC(=O)Nc1cc(Cl)ccc1C(=O)O)Nc1cc(Cl)ccc1C(=O)O [Compound 05]
- IC10 (hyaluronidase): 1.32 mM

Compound: O=C(CC(=O)Nc1cc([N+](=O)[O-])ccc1C(=O)O)Nc1cc([N+](=O)[O-])ccc1C(=O)O [Compound 06, 4,4'-dinitro-2,2'-[(1,3-dioxo-1,3-propanediyl)diimino]bisbenzoic acid]
- IC50 (hyaluronidase; IC50 (mM)): 0.013 mM
- inhibition in vivo at 10 mg/kg [1, 3]: 8.5%
- inhibition in vivo at 10 mg/kg [1, 4]: 11.2%
- inhibition in vivo at 50 mg/kg [1, 3]: 14.9%
- inhibition in vivo at 50 mg/kg [1, 4]: 13.3%
- inhibition in vivo at 100 mg/kg [1, 3]: 18.6%
- inhibition in vivo at 100 mg/kg [1, 4]: 18.8%

Compound: Cc1ccc(NC(=O)CC(=O)Nc2ccc(C)cc2C(=O)O)c(C(=O)O)c1 [Compound 07]
- IC10 (hyaluronidase): 0.66 mM
- IC20 (hyaluronidase): 0.72 mM

Compound: COc1ccc(C(=O)O)cc1NC(=O)CC(=O)Nc1cc(C(=O)O)ccc1OC [Compound 08]
- IC10 (hyaluronidase): 0.22 mM

Compound: O=C(CC(=O)Nc1cc(Cl)ccc1C(=O)O)Nc1ccccc1C(=O)O [Compound 09, 4-chloro-2,2'-[(1,3-dioxo-1,3propanediyl)diimino]bisbenzoic acid]
- IC50 (hyaluronidase; read-out: IC50): 0.134 mM

Compound: O=C(Nc1cccc(C(=O)O)c1)C(=Cc1ccccc1)C(=O)Nc1cccc(C(=O)O)c1 [Compound 12]
- IC50 (hyaluronidase; read-out: IC50): 0.065 mM

Compound: O=C(Nc1ccc(C(=O)O)cc1)C(=Cc1ccccc1)C(=O)Nc1ccc(C(=O)O)cc1 [Compound 13]
- IC50 (hyaluronidase; read-out: IC50): 0.055 mM

Compound: O=C(Nc1cc(Cl)ccc1C(=O)O)C(=Cc1ccccc1)C(=O)Nc1cc(Cl)ccc1C(=O)O [Compound 15]
- IC50 (hyaluronidase; read-out: IC50): 0.055 mM

Compound: O=C(Nc1cc([N+](=O)[O-])ccc1C(=O)O)C(=Cc1ccccc1)C(=O)Nc1cc([N+](=O)[O-])ccc1C(=O)O [Compound 16]
- IC50 (hyaluronidase; IC50 (mM)): 0.01 mM
- inhibition in vivo at 50 mg/kg [1, 3]: 3.2%
- inhibition in vivo at 50 mg/kg [1, 4]: 9%
- inhibition in vivo at 100 mg/kg [1, 3]: 11.8%
- inhibition in vivo at 100 mg/kg [1, 4]: 12.2%

Compound: Cc1ccc(NC(=O)C(=Cc2ccccc2)C(=O)Nc2ccc(C)cc2C(=O)O)c(C(=O)O)c1 [Compound 17]
- IC50 (hyaluronidase; read-out: IC50): 0.142 mM

Compound: COc1ccc(C(=O)O)cc1NC(=O)C(=Cc1ccccc1)C(=O)Nc1cc(C(=O)O)ccc1OC [Compound 18]
- IC10 (hyaluronidase): 0.29 mM

Compound: COc1cc(C=C(C(=O)Nc2ccccc2C(=O)O)C(=O)Nc2ccccc2C(=O)O)cc(OC)c1OC [Compound 23]
- IC50 (hyaluronidase; read-out: IC50): 0.03 mM
- Inhibition % Gastric Acidity ([2]; id 100 mg/kg): 32.5%
- Inhibition % secretion amount of gastric juice ([2]; id 100 mg/kg): 8.5%
- Inhibition % total pepsin titer ([2]; id 100 mg/kg): 31.1%
- Inhibition % Gastric Acidity ([2]; id 200 mg/kg): 40.2%
- Inhibition % secretion amount of gastric juice ([2]; id 200 mg/kg): 11.2%
- Inhibition % total pepsin titer ([2]; id 200 mg/kg): 41.2%

Compound: CN(C)c1ccc(C=C(C(=O)Nc2ccccc2C(=O)O)C(=O)Nc2ccccc2C(=O)O)cc1 [Compound 28]
- IC50 (hyaluronidase; read-out: IC50): 0.11 mM

Compound: O=C(Nc1ccccc1C(=O)O)C(=Cc1ccc(C(F)(F)F)cc1)C(=O)Nc1ccccc1C(=O)O [Compound 35]
- IC50 (hyaluronidase; read-out: IC50): 0.015 mM

Compound: O=C(Nc1ccccc1C(=O)O)C(=Cc1ccc([N+](=O)[O-])cc1)C(=O)Nc1ccccc1C(=O)O [Compound 36, 2,2'-[[1,3-dioxo-2-(4-nitro)phenylmethylene-1,3-propanediyl]diimino]bisbenzoic acid]
- IC50 (hyaluronidase; read-out: IC50): 0.025 mM

Compound: O=C(Nc1ccccc1C(=O)O)C(=Cc1cccc2ccccc12)C(=O)Nc1ccccc1C(=O)O [Compound 38]
- IC50 (hyaluronidase; read-out: IC50): 0.023 mM

Compound: Cn1cccc1C=C(C(=O)Nc1ccccc1C(=O)O)C(=O)Nc1ccccc1C(=O)O [Compound 43, 2,2'-[(1,3-dioxo-2-(1-methyl-1H-pyrrol-2-yl)methylene-1,3-propanediyl)diimino]bisbenzoic acid]
- IC50 (hyaluronidase; read-out: IC50): 0.04 mM

Compound: Cn1cc(C=C(C(=O)Nc2ccccc2C(=O)O)C(=O)Nc2ccccc2C(=O)O)c2ccccc21 [Compound 45]
- IC50 (hyaluronidase; read-out: IC50): 0.01 mM

Compound: O=C(O)c1ccccc1NC(=O)C(Cc1ccccc1)C(=O)Nc1ccccc1C(=O)O [Compound 50, 2,2'-[(1,3-dioxo-2-phenylmethyl-1,3-propanediyl)diimino]bisbenzoic acid]
- IC50 (hyaluronidase; read-out: IC50): 0.05 mM

Compound: CNC(=C[N+](=O)[O-])NCCSCc1ccc(CN(C)C)o1 [Ranitidine, reference compound]
- Inhibition % Gastric Acidity ([2]; id 30 mg/kg): 63.0%
- Inhibition % secretion amount of gastric juice ([2]; id 30 mg/kg): 25.2%
- Inhibition % total pepsin titer ([2]; id 30 mg/kg): 20.6%

More lines, main results first:

- IC50 (hyaluronidase; read-out: IC50): 0.013 mM
Compound: COc1ccc(C=C(C(=O)Nc2ccccc2C(=O)O)C(=O)Nc2ccccc2C(=O)O)cc1 [Compound 19]

- IC50 (hyaluronidase; read-out: IC50): 0.013 mM
Compound: O=C(Nc1ccccc1C(=O)O)C(=Cc1ccc2c(c1)OCO2)C(=O)Nc1ccccc1C(=O)O [Compound 25]
- Inhibition % Gastric Acidity ([2]; id 100 mg/kg): 45.2%
- Inhibition % secretion amount of gastric juice ([2]; id 100 mg/kg): 25.5%
- Inhibition % total pepsin titer ([2]; id 100 mg/kg): 32.1%
- Inhibition % Gastric Acidity ([2]; id 200 mg/kg): 80.0%
- Inhibition % secretion amount of gastric juice ([2]; id 200 mg/kg): 50.7%
- Inhibition % total pepsin titer ([2]; id 200 mg/kg): 40.5%
- Inhibition % Gastric Acidity ([2]; ip 50 mg/kg): 67.4%
- Inhibition % secretion amount of gastric juice ([2]; ip 50 mg/kg): 53.4%
- Inhibition % total pepsin titer ([2]; ip 50 mg/kg): 82.2%

- IC50 (hyaluronidase; read-out: IC50): 0.03 mM
Compound: CC(C)c1ccc(C=C(C(=O)Nc2ccccc2C(=O)O)C(=O)Nc2ccccc2C(=O)O)cc1 [Compound 27]

- IC50 (hyaluronidase; read-out: IC50): 0.025 mM
Compound: O=C(Nc1ccccc1C(=O)O)C(=Cc1cccc(Cl)c1)C(=O)Nc1ccccc1C(=O)O [Compound 31]

- IC50 (hyaluronidase; read-out: IC50): 0.025 mM
Compound: O=C(Nc1ccccc1C(=O)O)C(=Cc1ccccc1Cl)C(=O)Nc1ccccc1C(=O)O [Compound 32]

- IC50 (hyaluronidase; read-out: IC50): 0.015 mM
Compound: O=C(Nc1ccccc1C(=O)O)C(=Cc1ccc(Br)cc1)C(=O)Nc1ccccc1C(=O)O [Compound 33]

- IC50 (hyaluronidase; read-out: IC50): 0.025 mM
Compound: O=C(Nc1ccccc1C(=O)O)C(=Cc1ccc(F)cc1)C(=O)Nc1ccccc1C(=O)O [Compound 34]

- IC50 (hyaluronidase; read-out: IC50): 0.017 mM
Compound: N#Cc1ccc(C=C(C(=O)Nc2ccccc2C(=O)O)C(=O)Nc2ccccc2C(=O)O)cc1 [Compound 37]

- IC50 (hyaluronidase; read-out: IC50): 0.04 mM
Compound: O=C(Nc1ccccc1C(=O)O)C(=Cc1ccco1)C(=O)Nc1ccccc1C(=O)O [Compound 39]

- IC50 (hyaluronidase; read-out: IC50): 0.035 mM
Compound: O=C(Nc1ccccc1C(=O)O)C(=Cc1cccs1)C(=O)Nc1ccccc1C(=O)O [Compound 40, 2,2'-[[1,3-dioxo-2-{2-thienyl)methylene-1,3-propanediyl]diimino]bisbenzoicacid]

- IC50 (hyaluronidase; read-out: IC50): 0.06 mM
Compound: O=C(Nc1ccccc1C(=O)O)C(=Cc1ccsc1)C(=O)Nc1ccccc1C(=O)O [Compound 41, 2,2'-[(1,3-dioxo-2-(3-thienyl)methylene-1,3-propanediyl)diimino]bisbenzoicacid]

- IC50 (hyaluronidase; read-out: IC50): 0.025 mM
Compound: O=C(Nc1ccccc1C(=O)O)C(=Cc1ccc[nH]1)C(=O)Nc1ccccc1C(=O)O [Compound 42]

- IC50 (hyaluronidase; read-out: IC50): 0.073 mM
Compound: O=C(Nc1ccccc1C(=O)O)C(=Cc1cccnc1)C(=O)Nc1ccccc1C(=O)O [Compound 44]

- IC50 (hyaluronidase; read-out: IC50): 0.03 mM
Compound: O=C(Nc1ccccc1C(=O)O)C(=Cc1ccccc1)C(=O)Nc1cc(Cl)ccc1C(=O)O [Compound 46, 4-chloro-2,2'-[(1,3-dioxo-2-phenylmethylene-1,3-propanediyl)diimimo]bisbenzoic acid]
